Measured values reported in ChEMBL document CHEMBL1201862, “PubChem BioAssay data set” (2004).
Calls of active or inactive are those of the source.

Columns and labels:
Beta-lactamase [1] = target: Beta-lactamase (Salmonella choleraesuis (strain SC-B67), UniProt Q5J463)
Beta-lactamase [2] = target: Beta-lactamase (Pseudomonas aeruginosa, UniProt Q79MP6);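 further: biochemical dose-response test of metallo-beta-lactamase enzyme inhibition, read out by epi-absorbance; purified recombinant IMP-1 metallo-beta-lactamase with nitrocefin as substrate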
Sequence of Beta-lactamase (Pseudomonas aeruginosa, UniProt Q79MP6) (Q79MP6 whole entry): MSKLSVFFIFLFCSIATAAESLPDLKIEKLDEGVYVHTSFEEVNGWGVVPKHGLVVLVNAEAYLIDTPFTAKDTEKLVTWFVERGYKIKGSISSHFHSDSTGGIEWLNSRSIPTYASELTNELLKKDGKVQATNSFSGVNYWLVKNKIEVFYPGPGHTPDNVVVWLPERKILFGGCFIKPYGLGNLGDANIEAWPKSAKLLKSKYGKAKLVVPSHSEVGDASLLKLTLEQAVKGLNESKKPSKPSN

[3] = target: Tyrosine-protein phosphatase non-receptor type 11 (Homo sapiens, UniProt Q06124); assay: PTPN11 enzyme inhibitors – biochemical, selectivity assay for STEP inhibitor project, dose response (AID 602367); format: functional; settings: read-out: IC50_Mean
Sequence of Tyrosine-protein phosphatase non-receptor type 11 (Q06124 whole entry): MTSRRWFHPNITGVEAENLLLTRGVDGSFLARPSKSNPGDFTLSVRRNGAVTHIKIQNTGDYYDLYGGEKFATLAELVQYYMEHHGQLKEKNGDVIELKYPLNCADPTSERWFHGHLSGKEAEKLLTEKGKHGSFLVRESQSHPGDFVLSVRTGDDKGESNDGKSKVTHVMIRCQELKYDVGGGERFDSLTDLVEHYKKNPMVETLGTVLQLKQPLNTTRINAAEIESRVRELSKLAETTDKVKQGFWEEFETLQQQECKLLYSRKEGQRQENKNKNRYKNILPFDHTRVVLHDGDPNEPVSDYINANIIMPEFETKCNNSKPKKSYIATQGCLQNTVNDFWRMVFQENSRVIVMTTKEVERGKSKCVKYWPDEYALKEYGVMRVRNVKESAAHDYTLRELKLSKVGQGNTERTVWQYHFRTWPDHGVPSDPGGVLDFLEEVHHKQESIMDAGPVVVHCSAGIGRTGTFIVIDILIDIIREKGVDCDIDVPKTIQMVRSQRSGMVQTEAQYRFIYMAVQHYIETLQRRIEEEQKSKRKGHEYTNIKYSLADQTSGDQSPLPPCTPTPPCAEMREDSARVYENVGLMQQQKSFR

[4] = target: Glucose-6-phosphate 1-dehydrogenase (Homo sapiens, UniProt P11413); assay: inhibition of Homo sapiens G6PD, dose series – biochemical, fluorescence, selectivity assay for P. falciparum G6PD inhibitor project, dose response (AID 504792); format: functional
Sequence of Glucose-6-phosphate 1-dehydrogenase (P11413 whole entry): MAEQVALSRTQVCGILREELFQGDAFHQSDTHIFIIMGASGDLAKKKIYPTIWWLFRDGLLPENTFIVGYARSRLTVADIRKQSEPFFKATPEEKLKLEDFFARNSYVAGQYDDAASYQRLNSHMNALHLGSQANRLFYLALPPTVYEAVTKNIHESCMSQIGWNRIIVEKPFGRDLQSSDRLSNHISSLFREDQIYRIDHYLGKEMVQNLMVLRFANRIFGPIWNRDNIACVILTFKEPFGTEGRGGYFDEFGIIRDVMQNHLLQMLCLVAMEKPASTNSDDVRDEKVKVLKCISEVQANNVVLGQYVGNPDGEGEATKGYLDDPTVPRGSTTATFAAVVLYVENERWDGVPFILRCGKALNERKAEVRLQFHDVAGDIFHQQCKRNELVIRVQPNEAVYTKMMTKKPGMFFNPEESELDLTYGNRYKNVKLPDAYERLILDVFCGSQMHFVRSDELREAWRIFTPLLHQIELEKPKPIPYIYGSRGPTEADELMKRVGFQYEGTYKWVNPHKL

[5] = target: Dual specificity protein phosphatase 3 (Homo sapiens, UniProt P51452); assay: VHR phosphatase inhibition, dose response, selectivity assay for STEP inhibitor project, biochemical (AID 602374); format: functional; settings: read-out: IC50_Mean
Sequence of Dual specificity protein phosphatase 3 (P51452 whole entry): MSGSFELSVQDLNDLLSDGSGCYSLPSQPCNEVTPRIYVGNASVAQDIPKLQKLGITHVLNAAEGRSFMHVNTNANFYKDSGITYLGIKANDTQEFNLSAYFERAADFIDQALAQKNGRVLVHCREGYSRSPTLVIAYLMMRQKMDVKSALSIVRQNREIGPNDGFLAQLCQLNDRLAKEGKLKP

[6] = target: T1, Tyrosine-protein phosphatase non-receptor type 22 (Homo sapiens, UniProt Q9Y2R2); assay: lymphoid phosphatase LYP inhibitors – biochemical, selectivity assay for STEP inhibitor project, dose response (AID 624241); format: functional
T1 sequence (Q9Y2R2 whole entry): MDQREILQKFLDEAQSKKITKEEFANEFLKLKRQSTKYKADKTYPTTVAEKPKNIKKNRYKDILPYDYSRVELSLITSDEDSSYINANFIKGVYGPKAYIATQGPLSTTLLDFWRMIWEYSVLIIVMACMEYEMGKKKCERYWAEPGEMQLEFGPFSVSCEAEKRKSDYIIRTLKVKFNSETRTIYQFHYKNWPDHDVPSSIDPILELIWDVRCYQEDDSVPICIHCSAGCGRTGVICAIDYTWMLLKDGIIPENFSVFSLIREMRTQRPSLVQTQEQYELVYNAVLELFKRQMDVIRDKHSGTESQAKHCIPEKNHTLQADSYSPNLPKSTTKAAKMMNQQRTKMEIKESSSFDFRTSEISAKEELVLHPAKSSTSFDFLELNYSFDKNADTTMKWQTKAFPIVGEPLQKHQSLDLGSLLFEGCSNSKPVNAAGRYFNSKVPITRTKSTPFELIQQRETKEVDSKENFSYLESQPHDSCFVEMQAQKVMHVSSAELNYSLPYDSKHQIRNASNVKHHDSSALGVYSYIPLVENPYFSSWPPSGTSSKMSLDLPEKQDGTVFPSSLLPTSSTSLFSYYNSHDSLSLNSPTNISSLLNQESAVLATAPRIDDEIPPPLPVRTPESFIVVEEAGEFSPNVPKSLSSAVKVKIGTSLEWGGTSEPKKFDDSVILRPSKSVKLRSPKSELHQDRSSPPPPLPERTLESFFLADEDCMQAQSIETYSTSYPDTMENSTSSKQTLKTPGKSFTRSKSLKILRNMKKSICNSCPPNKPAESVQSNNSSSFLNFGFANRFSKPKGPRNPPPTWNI

[7] = target: Tyrosine-protein phosphatase non-receptor type 5 (Homo sapiens, UniProt P54829); assay: PTPN5 enzyme inhibition – biochemical, fluorescence intensity, uHTS hits, confirmation (AID 602372); format: functional; settings: read-out: IC50_Mean
Sequence of Tyrosine-protein phosphatase non-receptor type 5 (P54829 whole entry, the tested form may be a part): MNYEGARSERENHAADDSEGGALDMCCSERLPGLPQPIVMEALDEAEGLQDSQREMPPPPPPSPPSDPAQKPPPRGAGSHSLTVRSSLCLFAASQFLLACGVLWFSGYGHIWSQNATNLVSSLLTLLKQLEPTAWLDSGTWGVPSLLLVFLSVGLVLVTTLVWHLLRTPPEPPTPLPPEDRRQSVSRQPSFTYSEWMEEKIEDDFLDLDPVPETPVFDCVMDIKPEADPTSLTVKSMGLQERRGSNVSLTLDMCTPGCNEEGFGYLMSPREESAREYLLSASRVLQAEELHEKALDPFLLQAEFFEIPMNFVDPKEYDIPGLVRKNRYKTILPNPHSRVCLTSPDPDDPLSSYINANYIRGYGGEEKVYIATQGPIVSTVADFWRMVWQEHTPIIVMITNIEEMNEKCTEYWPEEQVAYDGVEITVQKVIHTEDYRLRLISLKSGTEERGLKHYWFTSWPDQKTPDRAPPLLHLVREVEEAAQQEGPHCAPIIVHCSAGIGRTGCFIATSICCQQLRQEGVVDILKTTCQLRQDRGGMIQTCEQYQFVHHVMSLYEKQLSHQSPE

[8] = target: Arf-GAP with SH3 domain, ANK repeat and PH domain-containing protein 1 (Homo sapiens, UniProt Q9ULH1); format: functional;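 further: biochemical fluorescence polarization dose–response screen measuring inhibition of ASAP1; ASAP1 GAP domain stimulating GTP hydrolysis by truncated human ARF1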
Sequence of Arf-GAP with SH3 domain, ANK repeat and PH domain-containing protein 1 (Q9ULH1 whole entry, the tested form may be a part): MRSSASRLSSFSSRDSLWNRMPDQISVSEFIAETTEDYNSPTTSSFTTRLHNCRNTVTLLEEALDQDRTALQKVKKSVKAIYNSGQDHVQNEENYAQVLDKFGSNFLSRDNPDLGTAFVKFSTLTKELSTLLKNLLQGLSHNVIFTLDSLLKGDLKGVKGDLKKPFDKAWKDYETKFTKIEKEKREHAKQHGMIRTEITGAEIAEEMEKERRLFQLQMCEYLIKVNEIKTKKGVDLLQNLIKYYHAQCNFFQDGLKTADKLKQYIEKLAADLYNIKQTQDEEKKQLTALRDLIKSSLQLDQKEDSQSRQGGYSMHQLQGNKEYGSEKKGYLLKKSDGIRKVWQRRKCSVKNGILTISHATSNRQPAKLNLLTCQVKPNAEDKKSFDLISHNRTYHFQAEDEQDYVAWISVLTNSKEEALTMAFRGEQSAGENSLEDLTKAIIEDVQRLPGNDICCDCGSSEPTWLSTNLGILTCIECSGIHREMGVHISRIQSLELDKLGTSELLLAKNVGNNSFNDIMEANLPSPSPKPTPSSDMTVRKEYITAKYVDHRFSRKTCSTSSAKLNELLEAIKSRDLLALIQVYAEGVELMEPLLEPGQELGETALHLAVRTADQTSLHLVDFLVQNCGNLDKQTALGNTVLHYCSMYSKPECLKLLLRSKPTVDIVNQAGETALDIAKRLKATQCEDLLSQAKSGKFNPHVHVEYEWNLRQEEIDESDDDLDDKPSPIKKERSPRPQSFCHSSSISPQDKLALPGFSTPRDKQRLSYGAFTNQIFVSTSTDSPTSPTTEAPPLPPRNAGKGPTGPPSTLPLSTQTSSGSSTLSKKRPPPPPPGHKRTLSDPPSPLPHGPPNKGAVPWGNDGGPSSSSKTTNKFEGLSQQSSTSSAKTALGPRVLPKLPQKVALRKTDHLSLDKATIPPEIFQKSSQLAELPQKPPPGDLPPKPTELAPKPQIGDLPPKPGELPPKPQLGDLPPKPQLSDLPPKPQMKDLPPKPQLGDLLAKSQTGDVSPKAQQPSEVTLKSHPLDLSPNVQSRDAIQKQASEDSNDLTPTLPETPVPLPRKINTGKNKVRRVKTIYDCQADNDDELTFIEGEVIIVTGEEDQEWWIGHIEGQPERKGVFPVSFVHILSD

HeLa = assay: viability loss in HeLa cells – cell-based, ATP luminescence, cherry-pick samples, cytotoxicity control, dose response (AID 687004); format: functional; settings: Homo sapiens
Protein RecA = target: T2, Protein RecA (Mycobacterium tuberculosis, UniProt P9WHJ3); assay: Fluorescence Cell-Free Homogeneous Dose Retest to Identify Inhibitors of RecA-Intein Splicing Activity. [Related pubchem assays (depositor defined):AID2097, AID2223, AID489010, AID492950]; format: functional
T2 sequence (P9WHJ3 whole entry): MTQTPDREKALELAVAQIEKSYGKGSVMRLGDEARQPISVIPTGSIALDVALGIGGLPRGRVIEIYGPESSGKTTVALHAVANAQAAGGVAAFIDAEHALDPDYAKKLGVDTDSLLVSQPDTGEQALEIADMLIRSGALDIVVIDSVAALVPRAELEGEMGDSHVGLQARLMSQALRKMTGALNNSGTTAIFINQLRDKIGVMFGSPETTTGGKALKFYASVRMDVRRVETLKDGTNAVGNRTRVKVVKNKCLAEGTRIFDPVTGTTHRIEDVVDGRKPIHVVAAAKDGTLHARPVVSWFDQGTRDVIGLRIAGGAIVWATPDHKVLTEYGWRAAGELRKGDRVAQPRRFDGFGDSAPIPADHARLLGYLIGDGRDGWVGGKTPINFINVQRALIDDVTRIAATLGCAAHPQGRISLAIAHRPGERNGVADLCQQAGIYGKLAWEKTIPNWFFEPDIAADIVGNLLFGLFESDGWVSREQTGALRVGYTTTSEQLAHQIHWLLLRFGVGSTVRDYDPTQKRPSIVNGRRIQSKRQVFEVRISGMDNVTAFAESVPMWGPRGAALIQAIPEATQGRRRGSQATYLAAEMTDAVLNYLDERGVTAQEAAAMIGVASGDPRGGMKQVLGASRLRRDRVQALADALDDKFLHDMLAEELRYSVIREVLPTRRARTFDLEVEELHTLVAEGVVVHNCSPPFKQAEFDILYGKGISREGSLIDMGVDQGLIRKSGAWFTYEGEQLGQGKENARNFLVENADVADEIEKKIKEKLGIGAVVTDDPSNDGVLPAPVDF

[9] = target: T3, Replicative DNA helicase DnaB (Mycobacterium tuberculosis, UniProt P9WMR3); assay: DnaB intein splicing inhibitors, dose response, biochemical, cell-free fluorescence (AID 449749); format: functional
T3 sequence (P9WMR3 whole entry): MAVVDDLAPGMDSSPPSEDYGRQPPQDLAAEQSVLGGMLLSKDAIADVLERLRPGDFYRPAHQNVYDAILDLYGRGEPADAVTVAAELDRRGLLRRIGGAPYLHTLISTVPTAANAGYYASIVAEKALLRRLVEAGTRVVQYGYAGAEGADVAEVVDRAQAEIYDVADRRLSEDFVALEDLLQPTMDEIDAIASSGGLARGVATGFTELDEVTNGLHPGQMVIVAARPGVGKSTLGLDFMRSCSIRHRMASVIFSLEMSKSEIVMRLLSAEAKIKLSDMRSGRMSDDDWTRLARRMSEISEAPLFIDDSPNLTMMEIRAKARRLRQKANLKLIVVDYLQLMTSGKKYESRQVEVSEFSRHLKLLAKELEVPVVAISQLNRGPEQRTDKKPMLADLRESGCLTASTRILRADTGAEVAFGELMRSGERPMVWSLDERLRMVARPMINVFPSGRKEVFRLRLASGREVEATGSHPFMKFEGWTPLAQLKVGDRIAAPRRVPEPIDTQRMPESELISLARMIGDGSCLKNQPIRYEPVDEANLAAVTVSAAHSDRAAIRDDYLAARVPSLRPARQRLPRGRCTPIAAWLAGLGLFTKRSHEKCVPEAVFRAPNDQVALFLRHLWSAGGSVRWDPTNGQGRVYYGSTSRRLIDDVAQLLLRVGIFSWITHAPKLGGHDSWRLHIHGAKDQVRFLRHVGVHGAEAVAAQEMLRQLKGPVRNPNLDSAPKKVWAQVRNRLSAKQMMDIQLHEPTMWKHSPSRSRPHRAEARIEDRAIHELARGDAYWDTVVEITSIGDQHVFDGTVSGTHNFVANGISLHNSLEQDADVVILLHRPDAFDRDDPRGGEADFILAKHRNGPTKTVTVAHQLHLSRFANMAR

[10] = target: T4, Sentrin-specific protease 8 (Homo sapiens, UniProt Q96LD8); format: functional
T4 sequence (Q96LD8 whole entry): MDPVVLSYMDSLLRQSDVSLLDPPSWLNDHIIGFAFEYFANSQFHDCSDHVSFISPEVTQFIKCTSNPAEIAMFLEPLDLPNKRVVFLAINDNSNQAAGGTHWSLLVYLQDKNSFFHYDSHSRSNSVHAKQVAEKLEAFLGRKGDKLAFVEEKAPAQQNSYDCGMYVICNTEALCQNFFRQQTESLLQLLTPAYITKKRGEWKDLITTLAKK

[11] = target: T4, Sentrin-specific protease 8; format: functional; remark: listed apart in the source
Cytochrome P450 2C19 = Cytochrome P450 2C19 (Homo sapiens, UniProt P33261); assay: Cytochrome panel assay with activity outcomes. Panel member name: p450-cyp2c19 Compounds with AC50 equal or less than 10 uM are considered active; format: functional; settings: read-out: AC50
Sequence of Cytochrome P450 2C19 (P33261 whole entry): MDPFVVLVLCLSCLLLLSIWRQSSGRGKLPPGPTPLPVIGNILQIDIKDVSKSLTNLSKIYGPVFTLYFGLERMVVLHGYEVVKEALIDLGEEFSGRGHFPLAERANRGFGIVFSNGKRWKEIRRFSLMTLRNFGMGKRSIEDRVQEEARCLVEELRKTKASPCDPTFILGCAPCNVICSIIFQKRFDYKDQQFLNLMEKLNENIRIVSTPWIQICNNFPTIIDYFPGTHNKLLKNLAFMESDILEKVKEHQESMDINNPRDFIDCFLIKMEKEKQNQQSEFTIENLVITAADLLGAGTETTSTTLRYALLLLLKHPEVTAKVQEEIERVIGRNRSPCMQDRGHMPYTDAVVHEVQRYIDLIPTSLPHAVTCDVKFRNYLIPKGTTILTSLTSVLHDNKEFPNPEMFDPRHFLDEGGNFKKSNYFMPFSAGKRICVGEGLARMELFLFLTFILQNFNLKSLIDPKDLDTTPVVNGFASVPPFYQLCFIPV

Cytochrome P450 3A4 = Cytochrome P450 3A4 (Homo sapiens, UniProt P08684);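 further: CYP3A4 tested as one member of a cytochrome P450 panel screen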
Sequence of Cytochrome P450 3A4 (P08684 whole entry): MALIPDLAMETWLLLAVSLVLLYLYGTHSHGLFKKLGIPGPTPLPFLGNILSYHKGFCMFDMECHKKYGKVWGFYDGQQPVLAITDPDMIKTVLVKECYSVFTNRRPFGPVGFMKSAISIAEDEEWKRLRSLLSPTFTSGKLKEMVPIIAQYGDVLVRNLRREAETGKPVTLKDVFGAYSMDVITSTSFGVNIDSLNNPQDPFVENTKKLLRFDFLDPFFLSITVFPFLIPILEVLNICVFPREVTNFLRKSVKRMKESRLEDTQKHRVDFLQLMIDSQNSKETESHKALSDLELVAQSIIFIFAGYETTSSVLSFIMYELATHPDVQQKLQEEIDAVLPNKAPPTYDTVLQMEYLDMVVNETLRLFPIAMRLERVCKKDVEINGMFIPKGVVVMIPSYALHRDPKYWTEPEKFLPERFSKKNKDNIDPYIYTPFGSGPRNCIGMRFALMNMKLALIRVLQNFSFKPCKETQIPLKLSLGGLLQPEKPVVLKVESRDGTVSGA

[12] = target: T5, Beta-2 adrenergic receptor (Homo sapiens, UniProt P07550); assay: Dose response for HTS for Beta-2AR agonists via FAP method from Powderset3.; format: functional
T5 sequence (P07550 whole entry): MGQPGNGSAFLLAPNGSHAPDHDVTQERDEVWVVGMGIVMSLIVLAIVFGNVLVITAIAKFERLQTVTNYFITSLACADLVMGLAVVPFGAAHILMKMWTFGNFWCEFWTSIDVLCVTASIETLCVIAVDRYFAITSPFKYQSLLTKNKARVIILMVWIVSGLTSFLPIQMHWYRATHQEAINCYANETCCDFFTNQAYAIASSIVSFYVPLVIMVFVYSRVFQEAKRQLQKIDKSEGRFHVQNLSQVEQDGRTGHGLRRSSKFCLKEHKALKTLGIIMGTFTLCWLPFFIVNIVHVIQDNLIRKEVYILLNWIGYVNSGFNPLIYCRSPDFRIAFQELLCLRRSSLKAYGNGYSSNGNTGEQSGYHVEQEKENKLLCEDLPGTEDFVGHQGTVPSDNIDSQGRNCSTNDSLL

[13] = target: T5, Beta-2 adrenergic receptor; assay: ADRB2 activation measured by internalization – cell-based, FAP fluorogen, flow cytometry, cherry pick 1, dose response (AID 588763); format: functional

Sequence of Beta-lactamase (Salmonella choleraesuis (strain SC-B67), UniProt Q5J463) (Q5J463 whole entry): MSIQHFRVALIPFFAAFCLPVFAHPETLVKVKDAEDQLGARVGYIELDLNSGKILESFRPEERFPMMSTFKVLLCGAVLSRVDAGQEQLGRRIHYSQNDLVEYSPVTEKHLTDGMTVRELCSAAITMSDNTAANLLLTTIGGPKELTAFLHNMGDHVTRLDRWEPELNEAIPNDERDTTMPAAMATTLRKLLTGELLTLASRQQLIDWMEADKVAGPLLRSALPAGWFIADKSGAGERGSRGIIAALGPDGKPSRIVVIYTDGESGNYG

In the case of `COC(=O)c1sccc1NC(=O)c1ccc(C#N)cc1`, the IC50 (Beta-lactamase [1]) is reported as > 59.6 µM (inactive) and the IC50 (Beta-lactamase [2]) is reported as > 59.6 µM (inactive).
With `Cc1cc(C)c(NC(S)=NCC2CCN(C(C)c3ccccc3)C2)c(C)c1` (configuration not stated) the IC50 [3] was 0.934 µM (active), the IC50 [4] was > 80 µM (inactive) and the IC50 [5] was 0.343 µM (active). For the same compound, the IC50 [6] was 48.4 µM (inactive) and the IC50 [7] was 6.09 µM (active).
With `O=C(COC(=O)c1ccc2c(c1)C(=O)N(c1cccc3ncccc13)C2=O)c1ccc(Cl)cc1` the IC50 [8] was 1.97 µM (active).
For `O=C1CCC(C(=O)Nc2cccc(C(F)(F)F)c2)N1` (configuration not stated), the AC50 (HeLa) was > 52 µM (inactive).
`CC1=NN(c2cccc(Cl)c2)C(=O)C1` was tested, and the EC50 (Protein RecA) was 54.5 µM (active), the AC50 [9] was 75.7 µM (active) and the IC50 [10] was 8.2 µM (active). The IC50 [11] was 13.4 µM (active).
In the case of `Cc1ccc(Cn2ccc(NC(=O)c3cc4nc(-c5ccco5)cc(C(F)(F)F)n4n3)n2)cc1`, the AC50 (Cytochrome P450 2C19) is reported as 14.1 µM (inconclusive), the AC50 (Cytochrome P450 3A4) is reported as 2.82 µM (inconclusive) and the EC50 [12] is reported as 0.00643 µM (active). The EC50 [13] was 0.22 µM (active).
